These results are taken from publication PMC7076710, “Synthesis, Identification, and Structure–Activity Relationship Analysis of GATA4 and NKX2-5 Protein–Protein Interaction Modulators” (Journal of Medicinal Chemistry, 2019).

The target in this experiment is T1, GATA4–NKX2-5 transcriptional synergy (Mus musculus, UniProt P42582+Q08369).
T1 construct: expressed in transfected cells; host or cells: COS-1
In words: GATA4–NKX2-5 transcriptional synergy luciferase reporter assay (3xNKE reporter, COS-1 cells). The experiment is classed as cell-based. (In general: Reporter assays use an easily measured gene product as a stand-in for the process of interest.)

The mark [1] stands for this setting: COS-1, compound 3 µM, luciferase reporter activity relative to control.
Setting [2] is: COS-1, compound 10 µM, luciferase reporter activity relative to control.
[3] abbreviates: COS-1, compound 3 µM, luciferase reporter activity, spread in separate STDEV column.
[4] abbreviates: COS-1, compound 10 µM, luciferase reporter activity, spread in separate STDEV column.
Setting [5] is: 3 µM compound, GATA4–NKX2-5 transcriptional synergy reporter, COS-1 cells.
The mark [6] stands for this setting: 10 µM compound, GATA4–NKX2-5 transcriptional synergy reporter, COS-1 cells.
The mark [7] stands for this setting: COS-1, compound at 3 µM, luciferase reporter activity, % of control.
The mark [8] stands for this setting: COS-1, compound at 10 µM, luciferase reporter activity, % of control.
Where [9] appears, read: COS-1, GATA4-NKX2-5 transcriptional synergy luciferase reporter assay, compound at 3 µM.
The mark [10] stands for this setting: COS-1, GATA4-NKX2-5 transcriptional synergy luciferase reporter assay, compound at 10 µM.

Each structure is given as a SMILES string.

T1 sequence (Q08369 whole entry): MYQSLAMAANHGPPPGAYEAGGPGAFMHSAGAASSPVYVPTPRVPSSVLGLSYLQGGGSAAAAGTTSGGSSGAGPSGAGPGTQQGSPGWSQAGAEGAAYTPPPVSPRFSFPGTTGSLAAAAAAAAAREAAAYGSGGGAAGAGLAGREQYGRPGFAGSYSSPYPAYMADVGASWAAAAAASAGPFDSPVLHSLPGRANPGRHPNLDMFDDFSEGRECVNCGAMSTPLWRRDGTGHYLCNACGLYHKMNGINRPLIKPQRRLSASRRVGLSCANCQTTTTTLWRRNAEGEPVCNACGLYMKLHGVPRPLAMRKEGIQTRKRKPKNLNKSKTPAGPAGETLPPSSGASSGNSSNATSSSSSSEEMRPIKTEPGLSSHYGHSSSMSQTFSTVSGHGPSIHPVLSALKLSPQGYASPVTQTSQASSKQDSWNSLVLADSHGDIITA
T1 sequence (P42582 whole entry): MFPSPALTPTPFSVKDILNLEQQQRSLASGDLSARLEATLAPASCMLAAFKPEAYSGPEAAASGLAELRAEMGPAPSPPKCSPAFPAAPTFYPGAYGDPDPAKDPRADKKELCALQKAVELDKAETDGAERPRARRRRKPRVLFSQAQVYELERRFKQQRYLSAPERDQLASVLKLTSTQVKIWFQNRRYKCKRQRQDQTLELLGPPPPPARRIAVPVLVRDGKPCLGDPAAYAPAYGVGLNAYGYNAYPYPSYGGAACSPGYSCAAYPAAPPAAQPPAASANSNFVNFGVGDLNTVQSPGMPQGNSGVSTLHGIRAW

Turning to `Cc1cc(NC(=O)c2c(C)noc2-c2ccccc2)ccc1C(C)C` [SI72], under setting [1], the activity at 3 µM stood at 102%. For the same compound, the activity at 10 µM under setting [2] came out at 95%.
Regarding `CCN(CC)c1ccc(NC(=O)c2c(C)noc2-c2noc(C)c2C)cc1` [SI73], the activity at 3 µM under setting [3] was determined as 86%. Moreover, the activity at 10 µM under setting [4] was 97.9%.
`CCN(CC)c1ccc(NC(=O)c2c(C)noc2-c2cc(CCOc3ccccn3)on2)cc1` [SI74]: the activity at 3 µM under setting [3] came out at 97.4%. Moreover, under setting [4], the activity at 10 µM was 104%.
Turning to `CCc1cc(-c2onc(C)c2C(=O)Nc2ccc(N(CC)CC)cc2)no1` [SI75], the activity at 3 µM under setting [3] was found to be 97.5%. The activity at 10 µM under setting [4] amounted to 88.8%.
With `CCN(CC)c1ccc(NC(=O)c2c(C)noc2-c2cc(-c3ccco3)on2)cc1` [SI76], the activity at 3 µM under setting [3] turned out to be 108%. In addition, under setting [4], the activity at 10 µM turned out to be 100%.
In the same order, the values of `Cc1cc(-c2onc(C)c2C(=O)N(C)c2ccc3oc(-c4ccccc4)cc(=O)c3c2)no1` [SI77] are 122% and 121%.
In the case of `CCN(CC)c1ccc(NCc2c[nH]nc2-c2ccc(F)cc2)cc1` [SI81], under setting [5], the activity at 3 µM stood at 98.1%. Further, the activity at 10 µM under setting [6] turned out to be 82.3%.
Regarding `Fc1ccc(-c2n[nH]cc2C=Nc2ccc(N3CCOCC3)cc2)cc1` [SI82], the activity at 3 µM under setting [7] was determined as 103%. For the same compound, the activity at 10 µM under setting [8] turned out to be 87.6%.
Regarding `CCN(CC)c1ccc(NCc2c[nH]nc2-c2cccs2)cc1` [SI83], under setting [5], the activity at 3 µM was determined as 99%. In addition, under setting [6], the activity at 10 µM was found to be 103%.
With `CCN(CC)c1ccc(CNCc2c[nH]nc2-c2ccccc2)cc1` [SI84], the activity at 3 µM under setting [1] amounted to 91.3%. Moreover, under setting [2], the activity at 10 µM was 84.8%.
`CCN(CC)c1ccc(NCc2c[nH]nc2C2CCCCC2)cc1` [SI85]: the activity at 3 µM under setting [5] was determined as 88.4%. Also, under setting [6], the activity at 10 µM turned out to be 82.1%.
In the case of `CCN(CC)c1ccc(NC(=O)c2c[nH]nc2C2CCCCC2)cc1` [SI86], the activity at 3 µM under setting [3] is 94.8%. Besides, the activity at 10 µM under setting [4] came to 70.7%.
For `Cc1cc(NC(=O)c2cnn(C)c2-c2ccccc2)ccc1C(C)C` [SI87], the activity at 3 µM under setting [5] amounted to 88.1%. Under setting [6], the activity at 10 µM turned out to be 68.4%.
`O=C(Nc1ccc2oc(-c3ccccc3)cc(=O)c2c1)c1c[nH]nc1-c1ccccc1` [SI90]: the activity at 3 µM under setting [5] was 102%. In addition, under setting [6], the activity at 10 µM is 71.2%.
For the compound `COc1ccc(-c2cc(N=Cc3ccc(N(C)C)cc3)n[nH]2)cc1` [SI91], under setting [7], the activity at 3 µM amounted to 94.2%. The activity at 10 µM under setting [8] worked out at 89.2%.
In the same order, the values of `CN(C)c1ccc(C=Nc2cc(-c3ccccc3)nn2-c2ccccc2)cc1` [SI93] are 93.3% and 107%.
As to `COc1ccc(-c2n[nH]c(N)c2/N=N/c2ccc(C(=O)O)cc2)cc1` [SI95], under setting [1], the activity at 3 µM came to 91.9%. For the same compound, under setting [2], the activity at 10 µM amounted to 89.3%.
In the case of `CCCCOC(=O)c1ccc(N=Nc2c(-c3ccc(OC)cc3)n[nH]c2N)cc1` [SI96], the activity at 3 µM under setting [1] turned out to be 97.6%. Under setting [2], the activity at 10 µM was 78.6%.
Consider `Nc1c(/N=N/c2ccc([N+](=O)[O-])cc2)c(-c2ccccc2)nn1-c1ccccc1` [SI97], for which, for the setting “COS-1, 3 µM, luciferase reporter activity, % of control”, the activity at 3 µM was 73.3%. The activity at 10 µM (COS-1, 10 µM, luciferase reporter activity, % of control) is 61.2%.
As to `COc1ccc(NC(=O)n2nc(N)cc2-c2ccc(OC)cc2)cc1` [SI99], under setting [7], the activity at 3 µM was 79.8%. For the same compound, the activity at 10 µM under setting [8] is 108%.
`O=C(Nc1ccc2oc(-c3ccccc3)cc(=O)c2c1)c1cnsc1` [SI100]: the activity at 3 µM under setting [1] came out at 112%. Moreover, the activity at 10 µM under setting [2] was 117%.
For `Cc1cc(C(=O)Nc2ccc3oc(-c4ccccc4)cc(=O)c3c2)c(-c2ccccc2)o1` [SI101], under setting [5], the activity at 3 µM turned out to be 90.8%. The activity at 10 µM under setting [6] came out at 78%.
The corresponding values for `O=C(Nc1ccc2oc(-c3ccccc3)cc(=O)c2c1)c1ncoc1-c1ccccc1` [SI102] are 103% and 91.3%.
For the compound `CSc1nsc(SC)c1C(=O)Nc1ccc2oc(-c3ccccc3)cc(=O)c2c1` [SI103], the activity at 3 µM under setting [5] turned out to be 96.2%. Moreover, under setting [6], the activity at 10 µM turned out to be 110%.
In the same order, the values of `O=C(Nc1ccc2oc(-c3ccccc3)cc(=O)c2c1)c1snnc1-c1ccccc1` [SI104] are 103% and 94.9%.
For `Cc1noc(-c2ccccc2)c1C(=O)Nc1ccc2oc(-c3ccccc3)cc(=O)c2c1` [SI105], the activity at 3 µM under setting [1] was determined as 70.3%. Further, under setting [2], the activity at 10 µM is 44.1%.
Take `CCN(CC)c1ccc(C(=O)Nc2c(C(N)=O)oc3ccccc23)cc1` [SI106]: the activity at 3 µM under setting [7] was determined as 94.1%. The activity at 10 µM under setting [8] stood at 95.8%.
Consider `CC(=O)c1ccc(OCc2cc(-c3ccc(CC(C)C)cc3)on2)cc1` [SI107], for which the activity at 3 µM under setting [1] came to 113%. Also, the activity at 10 µM under setting [2] was determined as 104%.
Regarding `Cc1onc(-c2ccccc2)c1NCc1ccc(N(C)C)cc1` [SI109], the activity at 3 µM under setting [7] was determined as 87.1%. Also, under setting [8], the activity at 10 µM came to 89.9%.
On to `COC(=O)c1ccc(N(C)C(=O)c2c(-c3ccccc3)noc2C)cc1` [SI110], for which the activity at 3 µM under setting [5] was found to be 100%. Also, under setting [6], the activity at 10 µM was 117%.
As for `COC(=O)c1c(-c2ccccc2)nnn1CCc1ccccc1` [SI111], the activity at 3 µM under setting [1] came to 103%. The activity at 10 µM under setting [2] stood at 106%.
With `COc1ccc(-c2cc(N)nn2C(=O)c2ccc(C(C)(C)C)cc2)cc1` [SI112], the activity at 3 µM under setting [7] worked out at 104%. For the same compound, the activity at 10 µM under setting [8] is 71.9%.
Take `N#Cc1ccc(NC(=O)c2cc(-c3ccco3)on2)cc1` [SI113]: the activity at 3 µM under setting [3] came out at 101%. The activity at 10 µM under setting [4] is 99.2%.
Take `CCN(CC)C(=O)c1cc(-c2cccs2)on1` [SI114]: under setting [3], the activity at 3 µM was determined as 124%. For the same compound, the activity at 10 µM under setting [4] was determined as 115%.
For `COc1ccc(NC(=O)c2c(-c3ccc(Br)s3)noc2C)cc1Cl` [SI115], the activity at 3 µM under setting [3] worked out at 92%. Also, the activity at 10 µM under setting [4] came to 91.9%.
In the same order, the values of `Cc1onc(-c2ccc(Br)s2)c1C(=O)Nc1ccc(C(C)C)cc1` [SI116] are 99.4% and 97.2%.
For the compound `Cc1onc(-c2ccc(Br)s2)c1C(=O)NC1CC1` [SI117], under setting [3], the activity at 3 µM was 90%. In addition, the activity at 10 µM under setting [4] was determined as 105%.
`N#Cc1ccc(NC(=O)c2cc(-c3ccncc3)[nH]n2)cc1` [SI118]: the activity at 3 µM under setting [3] came to 96.6%. Further, the activity at 10 µM under setting [4] is 102%.
In the case of `CC(C)c1ccc(NC(=O)c2n[nH]c3c2COc2ccccc2-3)cc1` [SI119], the activity at 3 µM under setting [9] is 91.2%. The activity at 10 µM under setting [10] was found to be 103%.
The corresponding values for `CCN(CC)c1ccc(NC(=O)c2cc(-c3ccco3)[nH]n2)cc1` [SI120] are 91.7% and 90.7%.
On to `O=C1COc2ccc(NC(=O)c3cc(-c4ccccc4)[nH]n3)cc2N1` [SI121], for which the activity at 3 µM under setting [9] came out at 101%. Besides, under setting [10], the activity at 10 µM is 90.6%.
Consider `O=C(Nc1ccc2c(c1)OC(F)(F)O2)c1cc(-c2ccco2)on1` [SI122], for which the activity at 3 µM under setting [9] came to 91.8%. In addition, the activity at 10 µM under setting [10] stood at 102%.
Regarding `O=C(Nc1ccc(F)c(Cl)c1)c1cnoc1-c1ccco1` [SI124], the activity at 3 µM under setting [9] was 108%. The activity at 10 µM under setting [10] worked out at 102%.
Consider `CCC1(C)Oc2ccc(NC(=O)c3cnoc3-c3ccc(C)o3)cc2O1` (stereo not drawn) [SI125], for which the activity at 3 µM under setting [9] was determined as 106%. Also, the activity at 10 µM under setting [10] is 91.7%.
In the same order, the values of `CCOC(=O)c1cc(NC(=O)c2cc(-c3ccccc3)no2)c[nH]1` [SI126] are 100% and 101%.
